Experimental data published in US9862713B2, “Substituted bicyclic heteroaryl compounds as RXR agonists” (CONNEXIOS LIFE SCIENCES PVT. LTD., priority 2014, dated 2018).

Test system: hRXR α, β, or γ
Test: Transactivation assay (RARE-Luc dual luciferase reporter in HEK-293 cells), activity relative to LG268
Assay type: cell-based, human
Conditions: 24 h, luciferase activity expressed relative to LG268; for Activity at 300 nM: compound at 300 nM; for Activity at 1 µM: compound at 1 µM
Experimental: HEK-293 cells (ATCC) were seeded one day prior to transfection. For assessing EC50 of activation of RXR isoforms 2 μg of hRXR α, β, or γ (OriGENE, USA) over-expressing vector, 1 μg of plasmid expressing firefly luciferase under RARE element (RARE-Luc) and 25 ng of renilla luciferase vector (QIAGEN, USA) were co-transfected using lipofectamine reagent. Post 24 h of transfection, cells were treated with different concentrations of RXR agonists (100 nM, 300 nM and 1 uM) for 24 h followed by estimation of luciferase activity using Dual Luciferase Reporter Assay System (Promega). Luciferase activity was normalized to that of renilla luciferase. The activities of the RXR compounds were expressed relative to LG268, a known RXR agonist.

Cc1cc(C(=O)O)ccc1N(CC(C)C)c1nc2c(s1)C(C)(C)CCC2(C)C [Compound 61, 3-methyl-4-[(2-methylpropyl) (4,4,7,7-tetramethyl-4,5,6,7-tetrahydro-1,3-benzothiazol-2-yl)amino]benzoic acid]
Activity at 300 nM: **** (>0.5 to <0.6)

C#CCOc1cc(N(CC(C)C)c2sc3c(c2C)C(C)(C)CCC3(C)C)ccc1C(=O)O [Compound 56, 4-[(2-methylpropyl) (3,4,4,7,7-pentamethyl-4,5,6,7-tetrahydro-1-benzothiophen-2-yl)amino]-2-(prop-2-yn-1-yloxy)benzoic acid]
Activity at 300 nM: *** (>0.4 and <0.5)

CC(C)CN(c1ccc(C(=O)O)cn1)c1nc2c(s1)C(C)(C)CCC2(C)C [Compound 64, 6-[(2-methylpropyl) (4,4,7,7-tetramethyl-4,5,6,7-tetrahydro-1,3-benzothiazol-2-yl)amino]pyridine-3-carboxylic acid]
Activity at 300 nM: ***** (>0.6)

Cc1c(N(c2ccc(C(=O)O)cc2)C(C)C)sc2c1C(C)(C)CCC2(C)C [Compound 13, 4-[(3,4,4,7,7-Pentamethyl-4,5,6,7-tetrahydro-1-benzothiophen-2-yl) (propan-2-yl)amino]benzoic acid]
Activity at 1 µM: ** (>0.7 and <0.8)

CC1(C)CCC(C)(C)c2sc(-n3nnc4cc(C(=O)O)ccc43)nc21 [Compound 45, 1-(4,4,7,7-Tetramethyl-4,5,6,7-tetrahydro-1,3-benzothiazol-2-yl)-1H-benzotriazole-5-carboxylic acid]
Activity at 1 µM: * (<0.7)

Cc1c(N(Cc2ccccn2)c2ccc(C(=O)O)cc2)sc2c1C(C)(C)CCC2(C)C [Compound 104, 4-[(3,4,4,7,7-pentamethyl-4,5,6,7-tetrahydro-1-benzothiophen-2-yl) (pyridin-2-ylmethyl)amino]benzoic acid]
Activity at 300 nM: * (<0.3)

COc1ccc(/C=C/C(=O)O)cc1-c1sc2c(c1C)C(C)(C)CCC2(C)C [Compound 15, (2E)-3-[4-Methoxy-3-(3,4,4,7,7-pentamethyl-4,5,6,7-tetrahydro-1-benzothiophen-2-yl)phenyl]prop-2-enoic acid]
Activity at 1 µM: ** (>0.7 and <0.8)

CC(C)CN(c1ccc(C(=O)O)cc1)c1nc2c(s1)C(C)(C)CC(C)(O)C2(C)C (centres unmarked) [Compound 88, 4-[(5-hydroxy-4,4,5,7,7-pentamethyl-4,5,6,7-tetrahydro-1,3-benzothiazol-2-yl) (2-methylpropyl)amino]benzoic acid]
Activity at 300 nM: ** (>0.3 and <0.4)

CCN(c1ccc(C(=O)O)cn1)c1nc2c(s1)C(C)(C)CCC2(C)C [Compound 39, 6-[Ethyl(4,4,7,7-tetramethyl-4,5,6,7-tetrahydro-1,3-benzothiazol-2-yl)amino]pyridine-3-carboxylic acid]
Activity at 1 µM: ***** (>1)

CC1(C)CCC(C)(C)c2sc(N(Cc3ccccc3)c3ccc(C(=O)O)cn3)nc21 [Compound 66, 6-[benzyl(4,4,7,7-tetramethyl-4,5,6,7-tetrahydro-1,3-benzothiazol-2-yl)amino]pyridine-3-carboxylic acid]
Activity at 300 nM: ***** (>0.6)

CC1(C)CCC(C)(C)c2sc(N(CC3CC3)c3ncc(C(=O)O)cn3)nc21 [Compound 43, 2-[(Cyclopropylmethyl) (4,4,7,7-tetramethyl-4,5,6,7-tetrahydro-1,3-benzothiazol-2-yl)amino]pyrimidine-5-carboxylic acid]
Activity at 1 µM: * (<0.7)

CCN(c1ccc(C(=O)O)cc1)c1cc2c(s1)C(C)(C)CCC2(C)C [Compound 27, 4-[Ethyl(4,4,7,7-tetramethyl-4,5,6,7-tetrahydro-1-benzothiophen-2-yl)amino]benzoic acid]
Activity at 1 µM: ***** (>1)

Cc1cc(N(CC2CC2)c2nc3c(s2)C(C)(C)CCC3(C)C)ccc1C(=O)O [Compound 59, 4-[(cyclopropylmethyl) (4,4,7,7-tetramethyl-4,5,6,7-tetrahydro-1,3-benzothiazol-2-yl)amino]-2-methylbenzoic acid]
Activity at 300 nM: ** (>0.3 and <0.4)

Cc1c(N(C)c2ncc(C(=O)O)cn2)sc2c1C(C)(C)CCC2(C)C [Compound 23, 2-[Methyl(3,4,4,7,7-pentamethyl-4,5,6,7-tetrahydro-1-benzothiophen-2-yl)amino]pyrimidine-5-carboxylic acid]
Activity at 1 µM: *** (>0.8 and <0.9)

CC1(C)CCC(C)(C)c2sc(N(CC3CC3)c3ccc(C(=O)O)cc3)nc21 [Compound 38, 4-[(Cyclopropylmethyl) (4,4,7,7-tetramethyl-4,5,6,7-tetrahydro-1,3-benzothiazol-2-yl)amino]benzoic acid]
Activity at 1 µM: *** (>0.8 and <0.9)

CC1(C)CCC(C)(C)c2sc(C(C)(O)c3ccc(C(=O)O)cn3)nc21 (centres unmarked) [Compound 96, 6-[1-hydroxy-1-(4,4,7,7-tetramethyl-4,5,6,7-tetrahydro-1,3-benzothiazol-2-yl)ethyl]pyridine-3-carboxylic acid]
Activity at 300 nM: ** (>0.3 and <0.4)

CC1(C)CCC(C)(C)c2sc(N(CC3CC3)c3ccc(/C=C/C(=O)O)cc3)nc21 [Compound 107]
Activity at 300 nM: ***** (>0.6)

COc1cc(N(CC(C)C)c2sc3c(c2C)C(C)(C)CCC3(C)C)ccc1C(=O)O [Compound 54, 2-methoxy-4-[(2-methylpropyl)(3,4,4,7,7-pentamethyl-4,5,6,7-tetrahydro-1-benzothiophen-2-yl)amino]benzoic acid]
Activity at 300 nM: *** (>0.4 and <0.5)

C=C(c1ccc(C(=O)O)cc1)c1nc2c(s1)C(C)(C)CCC2(C)C [Compound 97, 4-[1-(4,4,7,7-tetramethyl-4,5,6,7-tetrahydro-1,3-benzothiazol-2-yl)ethenyl]benzoic acid]
Activity at 300 nM: ** (>0.3 and <0.4)

CC(C)CN(c1ccc(C(=O)O)nc1)c1nc2c(s1)C(C)(C)CCC2(C)C [Compound 67, 5-[(2-methylpropyl) (4,4,7,7-tetramethyl-4,5,6,7-tetrahydro-1,3-benzothiazol-2-yl)amino]pyridine-2-carboxylic acid]
Activity at 300 nM: * (<0.3)

C=CCN(c1ccc(C(=O)O)cc1)c1nc2c(s1)C(C)(C)CCC2(C)C [Compound 62, 4-[prop-2-en-1-yl(4,4,7,7-tetramethyl-4,5,6,7-tetrahydro-1,3-benzothiazol-2-yl)amino]benzoic acid]
Activity at 300 nM: ***** (>0.6)

CC1(C)CCC(C)(C)c2sc(/C=C/c3ccc(C(=O)O)cn3)nc21 [Compound 50, 6-[(E)-2-(4,4,7,7-Tetramethyl-4,5,6,7-tetrahydro-1,3-benzothiazol-2-yl)ethenyl]pyridine-3-carboxylic acid]
Activity at 1 µM: * (<0.7)

CC1(C)CCC(C)(C)c2sc(N(CC3CC3)c3ccc(CC(=O)O)cc3)nc21 [Compound 105, {4-[(cyclopropylmethyl) (4,4,7,7-tetramethyl-4,5,6,7-tetrahydro-1,3-benzothiazol-2-yl)amino]phenyl}acetic acid]
Activity at 300 nM: ***** (>0.6)

Cc1c(NC(=O)c2ccc(C(=O)O)cc2)sc2c1C(C)(C)CCC2(C)C [Compound 25, 4-[(3,4,4,7,7-Pentamethyl-4,5,6,7-tetrahydro-1-benzothiophen-2-yl)carbamoyl]benzoic acid]
Activity at 1 µM: * (<0.7)

Cc1c(-n2nnc3cc(C(=O)O)ccc32)sc2c1C(C)(C)CCC2(C)C [Compound 28, 1-(3,4,4,7,7-Pentamethyl-4,5,6,7-tetrahydro-1-benzothiophen-2-yl)-1H-benzotriazole-5-carboxylic acid]
Activity at 1 µM: * (<0.7)

CC1(C)CCC(C)(C)c2sc(N(CC3CC3)c3cc(Cl)c(C(=O)O)cn3)nc21 [Compound 70, 4-chloro-6-[(cyclopropylmethyl) (4,4,7,7-tetramethyl-4,5,6,7-tetrahydro-1,3-benzothiazol-2-yl)amino]pyridine-3-carboxylic acid]
Activity at 300 nM: ***** (>0.6)

CC(C)CN(c1ccc(C(=O)O)cc1)c1nc2c(s1)C(C)(C)C=CC2(C)C [Compound 83, 4-[(2-methylpropyl) (4,4,7,7-tetramethyl-4,7-dihydro-1,3-benzothiazol-2-yl)amino]benzoic acid]
Activity at 300 nM: * (<0.3)

CCCS(=O)(=O)Nc1cc(N(CC(C)C)c2sc3c(c2C)C(C)(C)CCC3(C)C)ccc1C(=O)O [Compound 80, 4-[(2-methylpropyl) (3,4,4,7,7-pentamethyl-4,5,6,7-tetrahydro-1-benzothiophen-2-yl)amino]-2-[(propylsulfonyl)amino]benzoic acid]
Activity at 300 nM: *** (>0.4 and <0.5)

CC1(C)CCC(C)(C)c2sc(C(=O)c3ccc(C(=O)O)nc3)nc21 [Compound 93, 5-[(4,4,7,7-tetramethyl-4,5,6,7-tetrahydro-1,3-benzothiazol-2-yl)carbonyl]pyridine-2-carboxylic acid]
Activity at 300 nM: * (<0.3)

Cc1c(C(=O)c2ccc(C(=O)O)cn2)sc2c1C(C)(C)CCC2(C)C [Compound 5, 6-[(3,4,4,7,7-Pentamethyl-4,5,6,7-tetrahydro-1-benzothiophen-2-yl)carbonyl]pyridine-3-carboxylic acid]
Activity at 1 µM: ** (>0.7 and <0.8)

CC1(C)CCC(C)(C)c2sc(/C=C/c3ccc(C(=O)O)cc3)nc21 [Compound 48, 4-[(E)-2-(4,4,7,7-Tetramethyl-4,5,6,7-tetrahydro-1,3-benzothiazol-2-yl)ethenyl]benzoic acid]
Activity at 1 µM: * (<0.7)

CCN(c1ccc(C(=O)O)cn1)c1nc2c(s1)C(C)(C)CC(=O)C2(C)C [Compound 41, 6-[Ethyl(4,4,7,7-tetramethyl-5-oxo-4,5,6,7-tetrahydro-1,3-benzothiazol-2-yl)amino]pyridine-3-carboxylic acid]
Activity at 1 µM: * (<0.7)
